US6620828B2, “Thiazole compounds and pharmaceutical compositions for inhibiting protein kinases and methods for their use” (Agouron Pharmaceuticals, Inc., priority 1999, dated 2003)

Key:
Format in all cases: biochemical
CDK2/Cyclin A complex = CDK2/Cyclin A complex (Homo sapiens, UniProt P24941); experiment: CDK2/Cyclin A assay; details: Table 2
How it was run: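 Radiometric assay: 150 nM CDK2/cyclin A (insect-cell CDK2, truncated cyclin A) phosphorylates His-tagged Rb fragment (residues 386-928) with 25 μM ATP plus [32P]ATP, pH 7.4 HEPES, 2% DMSO, 30 °C for 20 min. Filter-captured product counted by phosphorimager; apparent Ki from competitive or tight-binding inhibition fits.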

CDK4/Cyclin D3 complex = molecular target: T1, CDK4/Cyclin D3 complex (Homo sapiens, UniProt P11802); experiment: CDK4/Cyclin D assay; details: Table 2
T1 construct: made in house; host or cells: insect cells co-infected with baculovirus vectors
T1 sequence (P11802 whole entry): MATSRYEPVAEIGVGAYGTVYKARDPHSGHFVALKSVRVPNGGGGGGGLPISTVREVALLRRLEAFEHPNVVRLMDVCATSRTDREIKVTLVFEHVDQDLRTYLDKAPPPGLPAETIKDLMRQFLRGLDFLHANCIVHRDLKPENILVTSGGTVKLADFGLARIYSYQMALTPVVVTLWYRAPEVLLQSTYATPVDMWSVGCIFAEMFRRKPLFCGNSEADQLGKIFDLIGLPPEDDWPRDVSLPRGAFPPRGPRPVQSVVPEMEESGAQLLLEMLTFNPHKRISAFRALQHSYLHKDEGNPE
T1 sequence (P30281 whole entry partner): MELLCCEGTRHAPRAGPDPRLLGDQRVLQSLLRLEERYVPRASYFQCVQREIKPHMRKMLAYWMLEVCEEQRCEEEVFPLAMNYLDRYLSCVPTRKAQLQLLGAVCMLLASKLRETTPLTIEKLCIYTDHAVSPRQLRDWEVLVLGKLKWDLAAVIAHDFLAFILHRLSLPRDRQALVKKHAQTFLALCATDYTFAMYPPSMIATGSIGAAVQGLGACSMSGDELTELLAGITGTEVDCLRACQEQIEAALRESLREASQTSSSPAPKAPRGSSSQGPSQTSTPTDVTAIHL
How it was run: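 Insect-cell-expressed CDK4/cyclin D3 (50 nM) phosphorylating His-tagged Rb fragment (residues 386-928) with 25 μM [^32P]ATP in HEPES pH 7.4, MgCl2, 2% DMSO; 20 min at 30 °C, EDTA stop. Filter-captured 32P by phosphorimager; apparent Ki from competitive or tight-binding inhibition fits.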

[1] = molecular target: T2, phosphorylated VEGF-R2Δ50 (FLVK-P) (Homo sapiens, UniProt P35968, DEL940-989/E990V); experiment: VEGF-R2 coupled spectrophotometric (FLVK-P) assay; details: Table 2; spectrophotometric assay
T2 construct: VEGF-R2Δ50 contains residues 806-939 and 990-1171; made in house; host or cells: baculovirus/insect cells
T2 sequence (P35968 with tags, fused parts or gaps DEL940-989/E990V limits assumed): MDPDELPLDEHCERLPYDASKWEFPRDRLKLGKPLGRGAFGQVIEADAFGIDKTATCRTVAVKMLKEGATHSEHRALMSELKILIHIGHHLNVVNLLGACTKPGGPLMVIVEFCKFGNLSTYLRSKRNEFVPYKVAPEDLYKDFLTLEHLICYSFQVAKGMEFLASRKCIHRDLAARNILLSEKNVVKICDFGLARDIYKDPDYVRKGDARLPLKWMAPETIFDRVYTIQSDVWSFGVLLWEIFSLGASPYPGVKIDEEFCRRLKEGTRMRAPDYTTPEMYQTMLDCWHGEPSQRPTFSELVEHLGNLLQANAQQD
How it was run: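 Baculovirus-expressed human VEGF-R2Δ50 (residues 806-939/990-1171, E990V) was autophosphorylated with 3 mM ATP, 40 mM MgCl2 for 2 h at 4° C. ADP formation was coupled via PK/LDH to NADH oxidation, read at 340 nm, with 5.1 mM poly(E4Y1), 1 mM ATP, 25 mM MgCl2, Hepes pH 7.5. Ki came from activity across compound concentrations.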

LCK tyrosine kinase = molecular target: T3, LCK tyrosine kinase (Homo sapiens, UniProt P06239, C224D/P223M); experiment: LCK spectrophotometric assay; details: Table 2; for LCK % inhibition @ 1: at 1 (head μM)
T3 construct: starting from amino acid residue 223 to the end of the protein at residue 509; made in house; host or cells: insect cells
T3 sequence (P06239 223-509 P223M/C224D): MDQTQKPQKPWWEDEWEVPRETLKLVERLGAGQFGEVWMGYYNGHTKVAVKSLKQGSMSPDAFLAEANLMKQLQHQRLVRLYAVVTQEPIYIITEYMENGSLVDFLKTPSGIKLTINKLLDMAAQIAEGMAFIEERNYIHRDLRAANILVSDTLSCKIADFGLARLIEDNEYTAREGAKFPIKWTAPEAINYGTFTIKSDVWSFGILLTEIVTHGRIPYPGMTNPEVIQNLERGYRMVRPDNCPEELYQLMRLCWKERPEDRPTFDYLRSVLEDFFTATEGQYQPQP
Description: LCK Construct for Assay: The LCK tyrosine kinase was expressed in insect cells as an N-terminal deletion starting from amino acid residue 223 to the end of the protein at residue 509, with the following two amino acid substitutions at the N-terminus: […] and C224D.
The spectrophotometric assay was carried out as described above for VEGF-R2, except for the following changes in concentration: LCK=60 nM, MgCl2=0 mM, poly(E4Y1)=20 mM.

Ki (CDK2/Cyclin A complex) | Ki (CDK4/Cyclin D3 complex) | Ki [1] | LCK % inhibition @ 1 (LCK tyrosine kinase) | LCK % inhibition @ 5 (LCK tyrosine kinase; at 5 (head μM)) | Structure (SMILES)
2100 nM | 29000 nM | 3 nM | 21% @ |  | COc1cc(Nc2nc(N)c(-c3nc(-c4cccc(O)c4)cs3)s2)cc(OC)c1OC [A(17), 3-[4′-Amino-2′-(3,4,5-trimethoxy-phenylamino)-[2,5′]bithiazolyl-4-yl]-phenol]
6400 nM | 13000 nM | 78 nM |  | 10% @ | CCCNc1nc(N)c(-c2nc(-c3cccc(O)c3)cs2)s1 [A(29), 3-(4′-Amino-2′-propylamino-[2,5′]bithiazolyl-4-yl)-phenol]
620 nM | 6700 nM | 6 nM | 42% @ |  | COc1cc(Nc2nc(N)c(-c3nc(-c4cccc(O)c4)no3)s2)cc(OC)c1OC [K(1), 3-{5-[4-Amino-2-(3,4,5-trimethoxy-phenylamino)-thiazol-5-yl]-[1,2,4]oxadiazol-3-yl}-phenol]
